Measured values from patent publication US20240208912A1 (Mirati Therapeutics, Inc., priority 2021, published 2024).
Where two headings read alike, the source gives them in different places.

Legend:
[1] = test system: HCT116 homozygous MTAP knockout cells; assay: Proliferation assay (CellTiter-Glo, 10 days) in HCT116 homozygous MTAP knockout cells; assay type: cell-based; conditions: CellTiter-Glo after 10 days of treatment, read-out: Proliferation IC50 (nM) HCT116 MTAP_KO
How it was run: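 MTAP-null HCT116 clone made by CRISPR/Cas9 knockout of both alleles, tested beside parental cells. Cells dosed the day after seeding, split 1:10 on day 6 into fresh medium with the same compound level, and read on day 11 by CellTiter-Glo. IC50 taken after 10 days of exposure.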

HCT116 parental cells = assay: Proliferation assay (CellTiter-Glo, 10 days) in HCT116 parental cells; assay type: cell-based; conditions: CellTiter-Glo after 10 days of treatment
Method: (§1) Control samples were analyzed in parallel.
Briefly, on Day 0, 250 HCT116 parental or HCT116 homozygous MTAP knockout cell were seeded in 96 well plates in McCoy's 5A supplemented with […] fetal bovine serum and pen/strep and the cells were incubated overnight at 37° C. plus 5% CO2.
The following day, cells were treated with DMSO vehicle control or a dose response of PRMT5 inhibitors and incubated at 37 C plus 5% CO2 for five days. On Day 6, the cells were trypsinized and split 1:10 into new 96-well plates with fresh medium containing the same concentration of PRMT5 inhibitor and incubated for an additional 5 days at 37° C. plus 5% CO^2.
On Day 11, the viability of the cells was measured using a CTG assay kit (CellTiter-Glo; Promega cat.no G7573) in accordance with the manufacturer's instructions. The IC50 values for each compound after 10 days of treatment were calculated using GraphPad PRISM software.

[2] = test system: PRMT5-dependent Symmetric Di-methyl Arginine signal in HCT116 parental cells; assay: SYM11 In-Cell Western in HCT116 parental cells; assay type: cell-based; conditions: HCT116 parental cells, 4 days of treatment, SYM11/DRAQ5 ratio as percent of DMSO control, read-out: In-cell-Western (SYM11) IC50 (nM) HCT216 parental
Method: as §1
Briefly, on Day 0, 2,000 HCT116 parental or HCT116 homozygous MTAP knockout cells were seeded in 96 well plates in McCoy's 5A supplemented with 10% fetal bovine serum and pen/strep and the cells were incubated overnight at 37° C. plus 5% CO2. The following day, cells were treated with DMSO vehicle control or a dose response of PRMT5 inhibitors, and incubated at 37° C. plus 5% CO^2 for four days.
After 4 days of treatment, the cells were fixed by adding 50 μl of 4% paraformaldehyde solution to each well and the cells were incubated for 20 min at room temperature. The paraformaldehyde solution was removed, 150 μl of ice-cold methanol was added and the plate was placed −20° C. for 10 minutes. The methanol was removed, 150 μl of Odyssey Blocking buffer+0.05% Tween20 was added and the plate was incubated at room temperature with shaking for one hour.
The primary SYM11 antibody solution was removed by aspiration and the wells were washed three consecutive times with phosphate buffered saline containing 0.1% Tween-20 (PBST).
The secondary antibody solution was removed by aspiration and the wells were washed three consecutive times with PBST.
The SYM11 signal and the DRAQ5 signal were quantified using a Li-Cor Odyssey machine reading at […], respectively. The SYM11/DRAQ5 ratio was used to calculate the inhibition of Symmetric Dimethyl Arginine as percent of DMSO control.

PRMT5/MEP50 complex [3] = target: T1, PRMT5/MEP50 complex (Homo sapiens, UniProt O14744); assay: PRMT5:MEP50 HotSpot Assay (full-length histone H2A substrate, plus and minus MTA); assay type: biochemical; conditions: IC50 + 2 μM MTA, in the presence of 2 μM MTA
T1 construct: purchased Reaction Biology Corporation
T1 sequence (O14744 2-637 limits assumed): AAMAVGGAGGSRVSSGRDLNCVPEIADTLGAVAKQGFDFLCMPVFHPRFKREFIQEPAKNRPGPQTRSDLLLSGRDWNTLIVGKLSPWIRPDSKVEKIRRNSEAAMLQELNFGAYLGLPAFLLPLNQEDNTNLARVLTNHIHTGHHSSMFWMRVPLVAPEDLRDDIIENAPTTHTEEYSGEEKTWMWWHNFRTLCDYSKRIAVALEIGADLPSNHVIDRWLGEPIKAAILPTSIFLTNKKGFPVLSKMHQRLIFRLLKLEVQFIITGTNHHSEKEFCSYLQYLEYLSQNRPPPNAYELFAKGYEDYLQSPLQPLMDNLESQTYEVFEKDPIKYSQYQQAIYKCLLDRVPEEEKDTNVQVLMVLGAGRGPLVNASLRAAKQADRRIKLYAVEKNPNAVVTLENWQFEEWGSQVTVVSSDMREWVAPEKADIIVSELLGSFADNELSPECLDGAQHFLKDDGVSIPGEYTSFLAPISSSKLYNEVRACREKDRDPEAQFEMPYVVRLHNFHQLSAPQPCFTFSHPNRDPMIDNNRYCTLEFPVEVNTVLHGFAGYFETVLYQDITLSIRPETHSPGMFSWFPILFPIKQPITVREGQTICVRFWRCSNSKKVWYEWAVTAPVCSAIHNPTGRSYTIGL
T1 sequence (Q9BQA1 2-342 partner limits assumed): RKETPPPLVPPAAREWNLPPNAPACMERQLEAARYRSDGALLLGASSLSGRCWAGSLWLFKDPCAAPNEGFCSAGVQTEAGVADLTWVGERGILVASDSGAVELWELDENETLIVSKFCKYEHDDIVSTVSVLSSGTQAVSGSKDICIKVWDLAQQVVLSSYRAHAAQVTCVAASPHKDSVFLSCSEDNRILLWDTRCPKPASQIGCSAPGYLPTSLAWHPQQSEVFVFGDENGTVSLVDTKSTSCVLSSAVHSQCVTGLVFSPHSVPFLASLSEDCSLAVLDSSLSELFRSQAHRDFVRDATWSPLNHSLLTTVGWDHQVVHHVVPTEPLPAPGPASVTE
How it was run: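 Radiometric HotSpot format using recombinant full-length histone H2A as substrate, run with and without MTA. Reactions were stopped and spotted onto filter paper. Tritiated H2A was quantified by scintillation counting.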

[4] = test system: PRMT5-dependent Symmetric Di-methyl Arginine signal in HCT116 homozygous MTAP Knockout cells; assay: SYM11 In-Cell Western in HCT116 homozygous MTAP knockout cells; assay type: cell-based; conditions: 4 days of treatment, SYM11/DRAQ5 ratio as percent of DMSO control, read-out: In-cell-Western (SYM11) IC50 (nM) HCT116 MTAP_KO
How it was run: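 HCT116 cells with CRISPR homozygous MTAP knockout, alongside parental cells, treated four days with PRMT5 inhibitor dose response at 37° C., 5% CO2 in McCoy's 5A with 10% FBS.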

PRMT5/MEP50 complex [5] = target: T1, PRMT5/MEP50 complex; assay: PRMT5:MEP50 FlashPlate Assay (histone H4 peptide substrate, plus and minus MTA); assay type: biochemical; conditions: in the absence of MTA, read-out: IC50
Method: The PRMT5 inhibitory activity of compounds of the present invention was determined using either a PRMT5:MEP50 FlashPlate Assay (Reaction Biology Corporation) or a PRMT5:MEP50 HotSpot Assay (Reaction Biology Corporation).

IC50 ([1]; Homo sapiens, HCT-116, 240 h)	IC50 (PRMT5/MEP50 complex [3])	IC50 [4]	IC50 [1]	IC50 ([4]; Homo sapiens, HCT-116, 96 h)	IC50 (PRMT5/MEP50 complex [5])	SMILES	IC50 (HCT116 parental cells; Homo sapiens, HCT-116, 240 h)	IC50 [2]	IC50 (HCT116 parental cells)	IC50 ([2]; Homo sapiens, HCT-116, 96 h)
11 nM						N#Cc1c(OC2CC2)cc(Cl)c(F)c1-c1c(-c2ccc3c(=O)[nH]nc(CN)c3c2)cnn1C(F)F (atropisomer, axis not shown; (M)) [Example 16-106, (M)-2-(4-(4-(aminomethyl)-1-oxo-1,2-dihydrophthalazin-6-yl)-1-(difluoromethyl)-1H-pyrazol-5-yl)-4-chloro-6-cyclopropoxy-3-fluorobenzonitrile]	1950 nM			
	38 nM					Cn1ncc(-c2ccc3c(=O)[nH]nc(CN)c3c2)c1-c1c(F)cc2ccccc2c1C#N (single isomer, unassigned) [Example 16-1]		316 nM	757 nM	
224 nM	111 nM	73 nM				Cn1ncc(-c2ccc3c(=O)[nH]nc(CN)c3c2)c1-c1c(F)cc2ccccc2c1C#N (single isomer, unassigned) [Example 16-2]		> 1000 nM	5920 nM	
	237 nM	232 nM	211 nM			Cc1c(F)c(-c2c(-c3ccc4c(=O)[nH]nc(CN)c4c3)cnn2C)c(C#N)c2ccccc12 (single isomer, unassigned) [Example 16-13, (P)-2-[4-[4-(aminomethyl)-1-oxo-2H-phthalazin-6-yl]-2-methyl-pyrazol-3-yl]-3-fluoro-4-methyl-naphthalene-1-carbonitrile]		> 1000 nM	770 nM	
	12.3 nM	3 nM	8 nM			Cc1c(F)c(-c2c(-c3ccc4c(=O)[nH]nc(CN)c4c3)cnn2C)c(C#N)c2ccccc12 (single isomer, unassigned) [Example 16-14, (M)-2-[4-[4-(aminomethyl)-1-oxo-2H-phthalazin-6-yl]-2-methyl-pyrazol-3-yl]-3-fluoro-4-methyl-naphthalene-1-carbonitrile]		378 nM	4400 nM	
	462 nM	65 nM	112 nM			Cn1ncc(-c2ccc3c(=O)[nH]nc(CN)c3c2)c1-c1c(F)ccc(OC2CC2)c1C#N (single isomer, unassigned) [Example 16-21, (P)-2-[4-[4-(aminomethyl)-1-oxo-2H-phthalazin-6-yl]-2-methyl-pyrazol-3-yl]-6-(cyclopropoxy)-3-fluoro-benzonitrile]	4210 nM	4480 nM		
	107 nM	4 nM	17 nM			Cn1ncc(-c2ccc3c(=O)[nH]nc(CN)c3c2)c1-c1c(F)ccc(OC2CC2)c1C#N (single isomer, unassigned) [Example 16-22, (M)-2-[4-[4-(aminomethyl)-1-oxo-2H-phthalazin-6-yl]-2-methyl-pyrazol-3-yl]-6-(cyclopropoxy)-3-fluoro-benzonitrile]		1060 nM	3620 nM	
	1060 nM					CCOc1cc(-c2cnn(C)c2-c2c(F)c(C)c3cc(Cl)cnc3c2C#N)cc2c(CN)n[nH]c(=O)c12 (single isomer, unassigned) [Example 16-100, (M)-7-(4-(4-(aminomethyl)-8-ethoxy-1-oxo-1,2-dihydrophthalazin-6-yl)-1-methyl-1H-pyrazol-5-yl)-3-chloro-6-fluoro-5-methylquinoline-8-carbonitrile]	> 10000 nM			
16 nM	19 nM			6 nM		Cc1c(F)c(-c2c(-c3cc(Cl)c4c(=O)[nH]nc(CN)c4c3)cnn2C)c(C#N)c2cc(Cl)cnc12 (single isomer, unassigned) [Example 16-110, (M)-6-(4-(4-(aminomethyl)-8-chloro-1-oxo-1,2-dihydrophthalazin-6-yl)-1-methyl-1H-pyrazol-5-yl)-3-chloro-7-fluoro-8-methylquinoline-5-carbonitrile]	423 nM			176 nM
21 nM	451 nM			344 nM		CCOc1cc(-c2cnn(C)c2-c2c(F)c(C)c3ncc(Cl)cc3c2C#N)cc2c(CN)n[nH]c(=O)c12 (single isomer, unassigned) [Example 16-111, (P)-6-(4-(4-(aminomethyl)-8-ethoxy-1-oxo-1,2-dihydrophthalazin-6-yl)-1-methyl-1H-pyrazol-5-yl)-3-chloro-7-fluoro-8-methylquinoline-5-carbonitrile]	57 nM			686 nM
					420 nM	CCc1cncc(-c2ccc3c(=O)[nH]nc(CN)c3c2)c1 [Example 3-13, 4-(aminomethyl)-6-(5-ethylpyridin-3-yl)-phthalazin-1(2H)-one]				
					35 nM	COc1cccc(-c2c(-c3ccc4c(=O)[nH]nc(CN)c4c3)cnn2C)c1 [Example 4-93, 4-(aminomethyl)-6-(5-(3-methoxyphenyl)-1-methyl-1H-pyrazol-4-yl)phthalazin-1(2H)-one]				
					33 nM	Cc1cccc(-c2c(-c3ccc4c(=O)[nH]nc(CN)c4c3)cnn2C)c1 [Example 4-94, 4-(aminomethyl)-6-(1-methyl-5-(m-tolyl)-1H-pyrazol-4-yl)phthalazin-1(2H)-one]				
					> 100000 nM	Cc1nc2cncc(-c3ccc4c(=O)[nH]nc(CN)c4c3)c2o1 [Example 4-110, 4-(aminomethyl)-6-(2-methyloxazolo[4,5-c]pyridin-7-yl)phthalazin-1(2H)-one]				
245 nM	260 nM			55 nM		COCc1nc2sc(-c3c(-c4ccc5c(=O)[nH]nc(CN)c5c4)cnn3C)c(C#N)c2cc1Cl [Example 4-272, 2-(4-(4-(aminomethyl)-1-oxo-1,2-dihydrophthalazin-6-yl)-1-methyl-1H-pyrazol-5-yl)-5-chloro-6-(methoxymethyl)thieno[2,3-b]pyridine-3-carbonitrile]	> 10000 nM			> 1000 nM
1110 nM	261 nM			551 nM		Cn1ncc(-c2cc([C@H]3CCCO3)c3c(=O)[nH]nc(CN)c3c2)c1-c1sc2ccccc2c1C#N [Example 15-4, (R)-2-(4-(4-(aminomethyl)-1-oxo-8-(THF-2-yl)-1,2-dihydrophthalazin-6-yl)-1-methyl-1H-pyrazol-5-yl)benzo[b]thiophene-3-carbonitrile]				551 nM
96 nM	109 nM			96 nM		CC(=O)Nc1cc(-c2cnn(C)c2-c2sc3ccccc3c2C#N)cc2c(CN)n[nH]c(=O)c12 [Example 15-8, N-(1-(aminomethyl)-7-(5-(3-cyano-benzo[b]thiophen-2-yl)-1-methyl-1H-pyrazol-4-yl)-4-oxo-3,4-dihydrophthal-azin-5-yl)acetamide]	155 nM			720 nM
